Here are results for 3 compounds from paper PMC7465821, “Isolation of Three Lycorine Type Alkaloids from Rhodolirium speciosum (Herb.) Ravenna Using pH-Zone-Refinement Centrifugal Partition Chromatography and Their Acetylcholinesterase Inhibitory Activities” (Metabolites, 2020).

Structures are written as SMILES.

The target of the test is acetylcholinesterase (AChE) (Electrophorus electricus, UniProt O42275). Briefly: Ellman spectrophotometric microplate assay, […] nm. The format is biochemical.
Sequence of acetylcholinesterase (AChE) (O42275 24-633): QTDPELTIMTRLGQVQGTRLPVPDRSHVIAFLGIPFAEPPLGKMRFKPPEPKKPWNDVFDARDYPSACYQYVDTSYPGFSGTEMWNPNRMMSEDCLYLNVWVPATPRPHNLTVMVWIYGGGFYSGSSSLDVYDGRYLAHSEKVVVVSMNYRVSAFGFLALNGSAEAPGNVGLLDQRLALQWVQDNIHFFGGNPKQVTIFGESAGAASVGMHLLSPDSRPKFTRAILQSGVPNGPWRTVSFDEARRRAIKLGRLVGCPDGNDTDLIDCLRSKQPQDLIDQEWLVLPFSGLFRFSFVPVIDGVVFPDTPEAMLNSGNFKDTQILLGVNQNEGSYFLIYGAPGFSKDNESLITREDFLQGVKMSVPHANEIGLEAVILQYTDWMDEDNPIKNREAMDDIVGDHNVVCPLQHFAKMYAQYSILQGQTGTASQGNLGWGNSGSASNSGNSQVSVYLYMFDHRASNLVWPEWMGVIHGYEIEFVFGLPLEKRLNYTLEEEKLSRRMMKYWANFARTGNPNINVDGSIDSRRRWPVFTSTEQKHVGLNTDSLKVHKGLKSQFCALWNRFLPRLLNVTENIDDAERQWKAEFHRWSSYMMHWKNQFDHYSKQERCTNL
In the case of `CC(=O)O[C@H]1[C@H]2c3cc4c(cc3C=[N+]3CCC(=C[C@@H]1O)[C@H]23)OCO4` [compound 1, 1-O-acetyl-5,6-dehydrolycorine], the 50% inhibitory concentration (IC50) was 620 µM.
With `CC(=O)O[C@H]1[C@H]2c3cc4c(cc3CN3CCC(=C[C@@H]1O)[C@H]23)OCO4` [compound 2, 1-O-acetyl-lycorine] the figure was 1430 µM; with `CC(=O)OC1[C@@H](OC(C)=O)C=C2CC[N+]3=Cc4cc5c(cc4[C@H]1[C@@H]23)OCO5` (stereo partly drawn) [compound 3, 1,2-O-diacetyl-5,6-dehydrolycorine], 46.3 µM.
